Earlier results in patent US12275835B1, “High clarity antimicrobial resins” (Phoenix Plastics L.P., priority 2020, dated 2025).

Legend:
Gram-positive bacteria = conditions: within 30 seconds
Gram-negative bacteria = conditions: within 30 seconds

SMILES: N=C(NCCCCCCNC(=N)NC(=N)Nc1ccc(Cl)cc1)NC(=N)Nc1ccc(Cl)cc1 [chlorhexidine]
- kill of Gram-positive bacteria (Gram-positive bacteria): ~100%
- kill of Gram-negative bacteria (Gram-negative bacteria): ~100%
